Measured values: patent US12459915B2, “Biaryl derivative useful as diacylglycerol acyltransferase 2 inhibitor, and use thereof” (LG CHEM, LTD., priority 2020, dated 2025)

Biological target: Recombinant human DGAT2 protein (Homo sapiens (Human), UniProt Q96PD7)
Assay: Measurement of inhibitory effect against DGAT2 enzyme activity (SPA, Phospholipid Flash Plate)
Type: biochemical
Details: DGAT2-membrane protein from Sf-21 cells, [14C] oleoyl CoA, 1,2 sn-oleoyl glycerol, 37° C.; read-out: IC50 (concentration of the compound that inhibits TG production by 50%)
Procedure: In order to prepare the pBacPAK9-DGAT2, which is DGAT2 expression vector, the human DGAT2 gene amplified by polymerase chain reaction (PCR) was cloned into the EcoR1 and Xho1 sites of the pBacPAK9 (clonctech) vector. The nucleotide sequence of the primers used in PCR was the forward primer 5′ […] and the reverse primer 5′ […]. The composition of the reaction solution was to contain 50 ng of cDNA clone (OriGene), 200 μM of dATP, dCTP, dTTP, dGTP, 200 nM of each primer, 1 unit of Tag DNA Polymerase (Toyobo), 1×PCR buffer, and the final volume was adjusted to 20 μl. […]
Recombinant human DGAT2 protein was expressed in Sf-21 cells, which are insect cells, by using the BacPack baculovirus expression system (Clontech). […] Protein concentration was quantified by using the BCA Protein Assay Kit (Thermo Scientific).
In vitro DGAT2 analysis was performed using a Phospholipid Flash Plate (PerkinElmer) based on the principle of SPA (Scintilation Proximity Assay). […] The next day, the amplified scintillation signal (cpm) in Topcounter (Packard) was measured to measure the degree of production of [14C]-labeled triacyl glycerol (TG) as a reaction product. The measured value when the compound was not treated was used as a positive control, and the measured value of the compound treated group was calculated as a relative % to measure the inhibition effect of the compound on TG production. […]

Recombinant human DGAT2 protein, sequence (Q96PD7 whole entry): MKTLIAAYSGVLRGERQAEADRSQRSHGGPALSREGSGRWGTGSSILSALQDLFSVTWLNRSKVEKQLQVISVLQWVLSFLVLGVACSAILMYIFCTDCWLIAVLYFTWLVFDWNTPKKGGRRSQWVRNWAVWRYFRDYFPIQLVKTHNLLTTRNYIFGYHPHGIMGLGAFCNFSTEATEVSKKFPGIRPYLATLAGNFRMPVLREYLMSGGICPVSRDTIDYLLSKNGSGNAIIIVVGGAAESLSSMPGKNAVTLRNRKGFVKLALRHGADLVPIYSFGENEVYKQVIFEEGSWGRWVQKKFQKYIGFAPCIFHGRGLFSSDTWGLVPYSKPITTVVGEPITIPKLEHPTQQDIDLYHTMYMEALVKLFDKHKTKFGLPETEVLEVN

CCOc1ccccc1Oc1cccc(-c2cncc(NC(=O)Cc3ccc(CC(=O)O)cc3)n2)c1 [Example 11, 2-(4-(2-((6-(3-(2-ethoxyphenoxy)phenyl)pyrazin-2-yl)amino)-2-oxoethyl)phenyl)acetic acid]
IC50: 370 nM
